Laboratory results: ChEMBL document CHEMBL3045936, “Synthesis of new piperidyl indanone derivatives as anticonvulsant agents” (Med Chem Res, 2012)
Calls of active or inactive are those of the source. The rule behind the calls is not given here.

Tests used:
Mus musculus [1] = test: Neurotoxicity in Mus musculus Swiss albino (mouse) assessed as minimal motor impairment at 300 mg/kg, ip after 0.5 hr by rotorod test; format: toxicity, organism-based; parameters: dose 300 mg/kg, route intraperitoneal; conditions: in vivo
Mus musculus [2] = test: Anticonvulsant activity in Mus musculus Swiss albino (mouse) assessed as protection against subcutaneous pentylenetetrazole-induced seizures at 300 mg/kg, ip after 4 hr; format: functional, organism-based; parameters: dose 300 mg/kg
Mus musculus [3] = test: Anticonvulsant activity in Mus musculus Swiss albino (mouse) assessed as protection against subcutaneous pentylenetetrazole-induced seizures at 300 mg/kg, ip after 0.5 hr; format: functional, organism-based; parameters: dose 300 mg/kg
Mus musculus [4] = test: Neurotoxicity in ip dosed Mus musculus Swiss albino (mouse) assessed as minimal motor impairment after 4 hr by rotorod test; format: toxicity, organism-based; conditions: in vivo
Mus musculus [5] = test: Anticonvulsant activity in ip dosed Mus musculus Swiss albino (mouse) assessed as protection against maximal electroshock-induced seizures after 0.5 hr; format: functional; conditions: read-out: MED
Mus musculus [6] = test: Anticonvulsant activity in ip dosed Mus musculus Swiss albino (mouse) assessed as protection against maximal electroshock-induced seizures after 4 hr; format: functional; conditions: read-out: MED
Mus musculus [7] = test: Neurotoxicity in Mus musculus Swiss albino (mouse) assessed as potentiation of ethanol-mediated effect at 100 to 300 mg/kg, ip administered 1 hr followed by ethanol challenge; format: toxicity, organism-based; parameters: dose 100-300 mg/kg, route intraperitoneal; conditions: in vivo
Mus musculus [8] = test: Neurotoxicity in Mus musculus Swiss albino (mouse) assessed as minimal motor impairment at 300 mg/kg, ip after 4 hr by rotorod test; format: toxicity, organism-based; parameters: dose 300 mg/kg, route intraperitoneal; conditions: in vivo
Mus musculus [9] = test: Neurotoxicity in ip dosed Mus musculus Swiss albino (mouse) assessed as minimal motor impairment after 0.5 hr by rotorod test; format: toxicity, organism-based; conditions: in vivo
Mus musculus [10] = test: Anticonvulsant activity in ip dosed Mus musculus Swiss albino (mouse) assessed as protection against subcutaneous pentylenetetrazole-induced seizures after 4 hr; format: functional; conditions: read-out: MED
Mus musculus [11] = test: Anticonvulsant activity in ip dosed Mus musculus Swiss albino (mouse) assessed as protection against subcutaneous pentylenetetrazole-induced seizures after 0.5 hr; format: functional; conditions: read-out: MED
Mus musculus [12] = test: Anticonvulsant activity in Mus musculus Swiss albino (mouse) assessed as protection against maximal electroshock-induced seizures at 300 mg/kg, ip after 4 hr; format: functional, organism-based; parameters: dose 300 mg/kg
[13] = Lipophilicity, log P of the compound; format: physicochemical; conditions: octanol/water
Rattus norvegicus [14] = test: Anticonvulsant activity in Rattus norvegicus Wistar (rat) assessed as increase in GABA level in cerebellum region measured per 100 mg of tissue at 100 mg/kg, ip after 2 hr (reference value: 25.27 +/- 0.57 ug); format: functional; conditions: route intraperitoneal
Rattus norvegicus [15] = test: Anticonvulsant activity in Rattus norvegicus Wistar (rat) assessed as increase in GABA level in medulla oblongata region measured per 100 mg of tissue at 100 mg/kg, ip after 2 hr (reference value: 40.57 +/- 0.2 ug); format: functional; conditions: route intraperitoneal
Rattus norvegicus [16] = test: Anticonvulsant activity in Rattus norvegicus Wistar (rat) assessed as increase in GABA level in mid brain region measured per 100 mg of tissue at 100 mg/kg, ip after 2 hr (reference value: 44.38 +/- 0.219 ug); format: functional; conditions: route intraperitoneal
Rattus norvegicus [17] = test: Anticonvulsant activity in Rattus norvegicus Wistar (rat) assessed as increase in GABA level in olfactory lob region measured per 100 mg of tissue at 100 mg/kg, ip after 2 hr (reference value: 13.22 +/- 0.03 ug); format: functional; conditions: route intraperitoneal

logP [13]	SMILES	Activity (Mus musculus [1])	Activity (Mus musculus [2])	Activity (Mus musculus [3])	MTC (Mus musculus [4]) [mg/kg]	minimal effective dose (Mus musculus [5]) [mg/kg]	minimal effective dose (Mus musculus [6]) [mg/kg]	Activity (Mus musculus [7])	Activity (Mus musculus [8])	MTC (Mus musculus [9]) [mg/kg]	minimal effective dose (Mus musculus [10]) [mg/kg]	minimal effective dose (Mus musculus [11]) [mg/kg]	Activity (Mus musculus [12])	Activity (Rattus norvegicus [14]) [µg]	Activity (Rattus norvegicus [15]) [µg]	Activity (Rattus norvegicus [16]) [µg]	Activity (Rattus norvegicus [17]) [µg]
	COc1cc2c(cc1OC)C(=O)C(CC1CCN(C(=S)Nc3ccccc3[N+](=O)[O-])CC1)C2 (stereo not drawn)	Non-toxic	inactive	inactive	300	100	300										
	COc1cc2c(cc1OC)C(=O)C(CC1CCN(C(=S)Nc3ccccc3Cl)CC1)C2 (stereo not drawn)					100	300	Toxic	Non-toxic	300	300	300					
	COc1cc2c(cc1OC)C(=O)C(CC1CCN(C(=S)Nc3cccc(C)c3)CC1)C2 (stereo not drawn)					300							inactive				
5.11	COc1cc2c(cc1OC)C(=O)C(CC1CCN(C(=S)Nc3ccc(Cl)cc3)CC1)C2 (stereo not drawn)				300	30	100	Non-toxic		100	300	100		27.66	40.75	44.81	13.47
	CCCCNC(=S)N1CCC(CC2Cc3cc(OC)c(OC)cc3C2=O)CC1 (stereo not drawn)				300	100	100	Non-toxic		300	300	100					
	NC(=O)N1c2ccccc2C=Cc2ccccc21 [CARBAMAZEPINE]					30	100		Non-toxic	300	100	300					
	COc1cc2c(cc1OC)C(=O)C(CC1CCN(C(=S)Nc3ccccc3C)CC1)C2 (stereo not drawn)		inactive		300	100		Non-toxic		100		300	inactive				
4.58	COc1cc2c(cc1OC)C(=O)C(CC1CCN(C(=S)Nc3ccc(C)cc3)CC1)C2 (stereo not drawn)					30	100		Non-toxic	300	300	100		31.83	49.82	61.05	15.62
	CCCNC(=S)N1CCC(CC2Cc3cc(OC)c(OC)cc3C2=O)CC1 (stereo not drawn)			inactive		100	300	Non-toxic	Non-toxic	300	300						
	COc1cc2c(cc1OC)C(=O)C(CC1CCN(C(=S)Nc3cccc([N+](=O)[O-])c3)CC1)C2 (stereo not drawn)					300							inactive				
	COc1cc2c(cc1OC)C(=O)C(CC1CCN(C(=S)Nc3ccccc3)CC1)C2 (stereo not drawn)					100	300		Non-toxic	300	300	100					
	COc1cc2c(cc1OC)C(=O)C(CC1CCN(C(=S)Nc3cccc(Cl)c3)CC1)C2 (stereo not drawn)					300							inactive				
	O=C1NC(=O)C(c2ccccc2)(c2ccccc2)N1 [PHENYTOIN]		inactive	inactive	100	30	30			100							
4.58	COc1cc2c(cc1OC)C(=O)C(CC1CCN(C(=S)Nc3ccc([N+](=O)[O-])cc3)CC1)C2 (stereo not drawn)		inactive			30	300	Non-toxic	Non-toxic	300		100		28.06	35.13	59.33	15.71
